In US10160736B2, “1,3,4-oxadiazole and 1,3,4-thiadiazole derivatives as immunomodulators” (Aurigene Discovery Technologies Limited, priority 2013, dated 2018):

biological target: T1, Recombinant mouse PD-L1 (Mus musculus, UniProt Q9EP73); experiment: Rescue of mouse splenocyte proliferation in the presence of recombinant PD-L1/PD-L2 (CFSE proliferation assay); type: cell-based; conditions: 100 nM compound; anti-CD3/CD28 stimulated mouse splenocytes + PD-L1; 72 h; normalised to stimulated splenocyte proliferation as 100%; read-out: Percent rescue of splenocyte proliferation (@100 nM compound concentration)
T1 construct: Fc (Fc chimera); purchased R&D Systems 1019-B7-100
T1 sequence (Q9EP73 with tags, fused parts or gaps limits assumed): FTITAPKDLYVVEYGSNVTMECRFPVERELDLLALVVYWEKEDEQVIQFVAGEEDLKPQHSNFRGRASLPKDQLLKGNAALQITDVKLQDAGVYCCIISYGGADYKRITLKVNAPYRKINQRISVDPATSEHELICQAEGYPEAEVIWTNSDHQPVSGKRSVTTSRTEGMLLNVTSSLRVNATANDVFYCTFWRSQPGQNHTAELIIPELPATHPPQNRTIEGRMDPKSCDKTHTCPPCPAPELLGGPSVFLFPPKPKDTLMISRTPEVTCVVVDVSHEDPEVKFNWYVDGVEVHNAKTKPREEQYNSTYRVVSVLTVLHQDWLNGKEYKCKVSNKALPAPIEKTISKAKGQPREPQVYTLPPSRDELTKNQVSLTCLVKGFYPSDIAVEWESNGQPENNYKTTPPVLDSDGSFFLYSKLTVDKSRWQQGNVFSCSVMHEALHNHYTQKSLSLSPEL
Protocol: Rescue of Mouse Splenocyte Proliferation in the Presence of Recombinant PD-L1/PD-L2:
Recombinant mouse PD-L1 (rm-PDL-1, cat no: 1019-B7-100 and R&D Systems) were used as the source of PD-L1.
Mouse splenocytes harvested from 6-8 weeks old C57 BL6 mice; RPMI 1640 (GIBCO, Cat #11875); DMEM with high glucose (GIBCO, Cat # D6429); Fetal Bovine Serum [Hyclone, Cat # SH30071.03]; Penicillin (10000 unit/ml)-Streptomycin (10,000 μg/ml) Liquid (GIBCO, Cat #15140-122); MEM Sodium Pyruvate solution 100 mM (100×), Liquid (GIBCO, Cat #11360); Nonessential amino acid (GIBCO, Cat #11140); L-Glutamine (GIBCO, Cat #25030); Anti-CD3 antibody (eBiosciences—16-0032); Anti-CD28 antibody (eBiosciences—16-0281); ACK lysis buffer (1 mL) (GIBCO, Cat #-A10492); Histopaque (density—1.083 gm/mL) (SIGMA 10831); Trypan blue solution (SIGMA-T8154); 2 mL Norm Ject Luer Lock syringe-(Sigma 2014-12); 40 μM nylon cell strainer (BD FALCON 35230); Hemacytometer (Bright line-SIGMA Z359629); FACS Buffer (PBS/0.1% BSA): Phosphate Buffered Saline (PBS) pH 7.2 (HiMedia TS1006) with 0.1% Bovine Serum Albumin (BSA) (SIGMA A7050) and sodium azide (SIGMA 08591); 5 mM stock solution of CFSE: CFSE stock solution was prepared by diluting lyophilized CFSE with 180 μL of Dimethyl sulfoxide (DMSO C2H6SO, SIGMA-D-5879) and aliquoted in to tubes for further use. Working concentrations were titrated from 10 μM to 1 μM. (eBioscience-650850-85); 0.05% Trypsin and 0.02% EDTA (SIGMA 59417C); 96-well format ELISA plates (Corning CLS3390); BD FACS caliber (E6016); Recombinant mouse B7-H1/PDL1 Fc Chimera, (rm-PD-L1 cat no: 1019-B7-100).
Splenocytes harvested in a 50 mL falcon tube by mashing mouse spleen in a 40 μm cell strainer were further treated with 1 mL ACK lysis buffer for 5 min at room temperature. After washing with 9 mL of RPMI complete media, cells were re-suspended in 3 mL of 1×PBS in a 15 mL tube. 3 mL of Histopaque was added carefully to the bottom of the tube without disturbing overlaying splenocyte suspension. After centrifuging at 800×g for 20 min at room temperature, the opaque layer of splenocytes was collected carefully without disturbing/mixing the layers. Splenocytes were washed twice with cold 1×PBS followed by total cell counting using Trypan Blue exclusion method and used further for cell based assays.
Splenocytes were cultured in RPMI complete media (RPMI+10% fetal bovine serum+1 mM sodium pyruvate+10,000 units/ml penicillin and 10,000 μg/ml streptomycin) and maintained in a CO2 incubator with 5% CO2 at 37° C.
CFSE is a dye that passively diffuses into cells and binds to intracellular proteins. 1×10^6 cells/mL of harvested splenocytes were treated with 5 μM of CFSE in pre-warmed 1×PBS/0.1% BSA solution for 10 min at 37° C. Excess CFSE was quenched using 5 volumes of ice-cold culture media to the cells and incubated on ice for 5 min. CFSE labelled splenocytes were further given three washes with ice cold complete RPMI media. CFSE labelled 1×10^5 splenocytes added to wells containing either MDA-MB231 cells (1×10^5 cells cultured in high glucose DMEM medium) or recombinant […] PDL-1 (100 ng/mL) and test compounds. Splenocytes were stimulated with anti-mouse CD3 and anti-mouse CD28 antibody (1 μg/mL each), and the culture was further incubated for 72 h at 37° C. with 5% CO2. Cells were harvested and washed thrice with ice cold FACS buffer and % proliferation was analyzed by flow cytometry with 488 nm excitation and 521 nm emission filters.
Percent splenocyte proliferation was analyzed using cell quest FACS program and percent rescue of splenocyte proliferation by compound was estimated after deduction of % background proliferation value and normalising to % stimulated splenocyte proliferation (positive control) as 100%.
Stimulated splenocytes: Splenocytes+anti-CD3/CD28 stimulation
Background proliferation: Splenocytes+anti-CD3/CD28+PD-L1
Compound proliferation: Splenocytes+anti-CD3/CD28+PD-L1+Compound […]

**Q.** How did the activation at 0.1 µM turn out when CC(O)[C@H](NC(=O)N[C@@H](C)c1nnc([C@@H](N)CO)o1)C(=O)O (stereo partly shown) [Compound 1] was run?
**A.** Its activation at 0.1 µM is 61.2%.

**Q.** CC(O)[C@H](NC(=O)N[C@@H](CC(N)=O)c1nnc([C@@H](N)CO)o1)C(=O)O (stereo partly shown) [Compound 2] was tested. Which activation at 0.1 µM did it give?
**A.** Its activation at 0.1 µM is 80.3%.

**Q.** Which activation at 0.1 µM does the source give for NC(=O)C[C@H](N)c1nnc([C@@H](N)CO)s1 [Compound 3] here?
**A.** Its activation at 0.1 µM is 48.4%.

**Q.** Which activation at 0.1 µM does the source give for CC(O)[C@H](NC(=O)N[C@@H](CC(N)=O)c1nnc([C@@H](N)CO)s1)C(=O)O (stereo partly shown) [Compound 4] here?
**A.** Its activation at 0.1 µM is 60%.

**Q.** With CC(O)[C@H](NC(=O)N[C@@H](CC(N)=O)c1nnc([C@@H](N)C(C)O)o1)C(=O)O (stereo partly shown) [Compound 9] as the compound, how does the activation at 0.1 µM read?
**A.** Its activation at 0.1 µM is 74%.

**Q.** With CC(O)[C@H](N)c1nnc([C@H](CC(N)=O)NC(=O)N[C@@H](CO)C(=O)O)o1 (stereo partly shown) [Compound 10] as the compound, how does the activation at 0.1 µM read?
**A.** The activation at 0.1 µM was 58%.

**Q.** Which activation at 0.1 µM does the source give for CC(O)[C@H](N)c1nnc([C@H](CCC(N)=O)NC(=O)N[C@@H](CO)C(=O)O)o1 (stereo partly shown) [Compound 12] here?
**A.** Its activation at 0.1 µM is 92%.

**Q.** For CC(O)[C@H](NC(=O)N[C@@H](CCC(N)=O)c1nnc([C@@H](N)C(C)O)o1)C(=O)O (stereo partly shown) [Compound 13], which activation at 0.1 µM is on record?
**A.** Its activation at 0.1 µM is 75%.

**Q.** For NC(=O)C[C@H](NC(=O)N[C@@H](CO)C(=O)O)c1nnc([C@@H](N)CO)o1 [Compound 14], which activation at 0.1 µM is on record?
**A.** Its activation at 0.1 µM is 53%.

**Q.** With CC(O)[C@H](NC(=O)N[C@@H](CCC(=O)O)c1nnc([C@@H](N)CO)o1)C(=O)O (stereo partly shown) [Compound 15] as the compound, how does the activation at 0.1 µM read?
**A.** The activation at 0.1 µM was 69%.

**Q.** How did the activation at 0.1 µM turn out when CC(O)[C@H](NC(=O)N[C@@H](CCC(N)=O)c1nnc([C@@H](N)CO)o1)C(=O)O (stereo partly shown) [Compound 16] was run?
**A.** Its activation at 0.1 µM is 56%.

**Q.** For NC(=O)CC[C@H](NC(=O)N[C@@H](CO)C(=O)O)c1nnc([C@@H](N)CO)o1 [Compound 17], which activation at 0.1 µM is on record?
**A.** Its activation at 0.1 µM is 53%.

**Q.** For CC(O)[C@H](NC(=O)N[C@@H](CC(=O)O)c1nnc([C@@H](N)CO)o1)C(=O)O (stereo partly shown) [Compound 18], which activation at 0.1 µM is on record?
**A.** The activation at 0.1 µM was 68%.
